Experimental data as given in article PMC12498288 (Frontiers in Immunology, 2025).
Like-named read-outs stand apart in the source and are kept apart here.

Experiments:
Vero E6 cells = conditions: Vero E6 24 h 5% FBS
[1] = system: lymphocytes, T cells and B cells; test: RESPIRE Phase 2 trial, lymphocytes, T and B cells in blood (flow cytometry); assay type: in vivo, human; conditions: 30-day observation period
Protocol: Patients receiving glucocorticoids as standard of care treatment were excluded from the analyses. Experiments were performed by CheckImmune GmbH according to the companies’ SOPs. In short, presence of lymphocytes, T cells and B cells were determined using Flow cytometry analysis. Fresh whole blood from hospitalized SARS-CoV-2 infected patients was stained with the aforementioned DuraClone antibody panels for 15 min at room-temperature and lysed for 15 min at room temperature following the standard staining protocol. Sample acquisition was carried out using the Navios Flow Cytometer (Beckman Coulter). Data analysis was conducted using Kaluza software before being sent to the LIMS system. This procedure is fit for purpose validated under ISO and GCP guidelines.

[2] = design: method as in PMID 38106555; conditions: hospitalized COVID-19 patients; cited from earlier work

O=C(O)c1ccc(F)c(F)c1Nc1ccc(I)cc1Cl [zapnometinib]
%LDH release compared to maximum LDH release (Vero E6 cells; 0.39 µM): 0.22%
%LDH release compared to maximum LDH release (Vero E6 cells; 0.78 µM): 0.17%
%LDH release compared to maximum LDH release (Vero E6 cells; 1.56 µM): 0.15%
%LDH release compared to maximum LDH release (Vero E6 cells; 3.13 µM): 0.39%
%LDH release compared to maximum LDH release (Vero E6 cells; 6.25 µM): 0.13%
%LDH release compared to maximum LDH release (Vero E6 cells; 12.50 µM): 0.09%
%LDH release compared to maximum LDH release (Vero E6 cells; 25.00 µM): -0.04%
%LDH release compared to maximum LDH release (Vero E6 cells; 50.00 µM): 0.02%
%LDH release compared to maximum LDH release (Vero E6 cells; 75.00 µM): 0.24%
%LDH release compared to maximum LDH release (Vero E6 cells; 100.00 µM): 0.26%
Lymphocytes, Increase compared to Placebo [1]: 44.5%
Plasma B cells, Increase compared to Placebo [1]: 61.8%
Memory B cells, Increase compared to Placebo ([1]; p = 0.0377): -37.4%
T cells, Increase compared to Placebo ([1]; p = 0.0409): 73.7%
safety and tolerability [2]: safe and well-tolerated
